{
  "source": "paper PMC13021670",
  "about": "“Novel small molecule targeting PgQC reduces Porphyromonas gingivalis virulence” (Frontiers in Oral Health, 2026)",
  "target": "T1, P. gingivalis glutaminyl cyclase (PgQC) (Porphyromonas gingivalis, UniProt Q7MT37)",
  "T1 construct": "gene PG_2157; Recombinant P. gingivalis glutaminyl cyclase",
  "T1 sequence (Q7MT37 entry or part of it)": "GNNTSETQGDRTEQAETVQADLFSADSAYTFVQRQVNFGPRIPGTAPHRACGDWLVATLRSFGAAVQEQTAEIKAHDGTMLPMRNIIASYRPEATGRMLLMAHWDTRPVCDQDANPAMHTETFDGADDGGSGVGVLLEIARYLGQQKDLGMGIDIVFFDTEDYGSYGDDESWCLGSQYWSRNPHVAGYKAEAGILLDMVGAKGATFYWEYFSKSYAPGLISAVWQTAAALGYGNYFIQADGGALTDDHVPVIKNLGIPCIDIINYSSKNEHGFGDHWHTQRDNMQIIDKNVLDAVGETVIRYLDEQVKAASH",
  "test": "fluorogenic enzyme assay with H-Gln-AMC, recombinant purified PgQC ([…]), fit to competitive inhibition",
  "format": "biochemical",
  "data": [
    {"molecule": "N=C(N)NCCOc1ccc(CNc2cnc3nc[nH]c3c2)cc1", "note": "[S-0636, 1-(2-(4-((lmidazo[4,5-b]pyridin-6-ylamino)methyl)-phenoxy)ethyl)guanidine]", "values": [
      {"measurement": "Ki", "result": 14, "unit": "nM"}
    ]}
  ]
}
